Experimental data as given in patent US20260028352A1, “MACROCYCLIC IMIDAZO [1,2-B] PYRIDAZINE DERIVATIVE, PREPARATION METHOD THEREFOR, AND USE THEREOF” (SUZHOU LANGRUI BIOPHARMACEUTICAL CO., LTD., priority 2022, published 2026).
pIC50: −log10 of the molar value.

Assays:
TRKA^WT kinase = TRKA^WT kinase (Homo sapiens (Human), UniProt P04629); assay: Inhibitory activity against TRKA WT kinase (Caliper mobility shift); format: biochemical; conditions: in vitro kinase assay
Description: (§1) Kinase Assay Process: 1× Kinase buffer was prepared. […] The compounds were serially diluted into 10 concentrations ([…], 0.15, and 0.05 nM) using a Precision 3-fold dilution method. By using the Echo550 liquid handler, 250 nL of the 100-fold final concentration compound was transferred to an OptiPlate-384F plate. a 2.5× final concentration kinase solution was prepared using 1× Kinase buffer. 10 μL of the 2.5× final concentration kinase solution was added to the compound wells and the positive control wells, and 10 μL of 1× Kinase buffer was added to the negative control wells. The plate was centrifuged at 1000 rpm for 30 seconds, vortexed for mixing, and then incubated at room temperature for 10 minutes. A mixture of 5/3× final concentration of ATP and Kinase Substrate 22 was prepared using 1× Kinase buffer. 15 μL of the mixture of the 5/3× final concentration ATP and the substrate was added to initiate the reaction, the 384-well plate was centrifuged at 1000 rpm for 30 seconds, vortexed for mixing, and incubated at room temperature for the required time. 30 μL of the termination solution was added to stop the kinase reaction, the plate was centrifuged at 1000 rpm for 30 seconds, and vortexed for mixing. The conversion rate was measured using the Caliper EZ Reader.
(§2) Data Analysis: the inhibition rate was calculated as follows:
(§3) % Inhibition=(Conversion %_max−conversion %_sample)÷(Conversion %_max−conversion %_min)×100
(§4) Conversion %_sample is the conversion rate reading for the sample; Conversion %_min is the average value of the negative control wells, representing the conversion rate for wells without enzyme activity: Conversion %_max is the average value of the positive control wells, representing the conversion rate for wells without compound inhibition. A dose-response curve was fitted using the log concentration of the compound as the X-axis and the percentage inhibition as the Y-axis. The log(inhibitor) vs. response-variable slope of the GraphPad Prism 5 software was used to fit the dose-response curve, and the IC50 value for each compound was obtained. The calculation formula is:
(§5) Y=Bottom+(Top−Bottom)/(1+10^((Log IC50−X)*HillSlope)).
(§6) wherein X represents the concentration of the compound to be tested; Y represents the inhibition rate at the concentration X: Top refers to the maximum response: Bottom refers to the baseline response; HillSlope refers to the slope of the curve (i.e., the gradient).

TRKA^F589L kinase = TRKA^F589L kinase (Homo sapiens (Human), UniProt P04629, F589L); assay: Inhibitory activity against TRKA(F589L) kinase (Caliper mobility shift); format: biochemical; conditions: in vitro kinase assay
Description: as §1, §2, §3, §4, §5, §6

[1] = system: Ba/F3-TPM3-NTRK1-G667C cells; assay: Growth inhibition of Ba/F3-TPM3-NTRK1-G667C cells (Cell Titer-Glo); format: cell-based; conditions: 72 hours, CTG; read-out: inhibitory activity IC50 Ba/F3-TPM3-NTRK1-G667C
Summary of the method: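 Ba/F3 cells were exposed for 72 hours to serially DMSO-diluted compound at a top final concentration of 10 μM. Viability was read by Cell Titer-Glo luminescence after the plate equilibrated 30 min at room temperature and was then shaken 1 hour in the dark at room temperature.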

[2] = system: Ba/F3-TPM3-NTRK1-G595R cells; assay: Growth inhibition of Ba/F3-TPM3-NTRK1-G595R cells (Cell Titer-Glo); format: cell-based; conditions: 72 hours, CTG; read-out: inhibitory activity IC50 Ba/F3-TPM3-NTRK1-G595R
Description: (§7) Then the solutions were subjected to a gradient dilution with DMSO: a clean, sterile V-bottom 96-well microplate was placed in the biological safety cabinet. First, 4 μL of DMSO was added to well B2 and 10 μL of DMSO was added to wells B3-B11 respectively; Next, 6 μL of the 10 mM solution was added to well B2. The microplate was pipetted up and down 10 times for mixing. […] Mixing was performed by pipetting up and down 10 times. The solution was diluted in order until well B10. only DMSO was added to well B11 (no compound).
(§8) 6× Compound Solution Preparation (6-fold dilution, × represents dilution factor): (Initial final concentration: 10 μM), a clean, sterile V-bottom 96-well microplate was placed in the biological safety cabinet. 99 μL of cell culture medium was added to each well from B2 to G11. By using a 12-channel pipettor, 1 μL of the compound solution prepared in the previous step was added into the corresponding wells. The solutions were pipetted up and down 10 times to mix the solutions. The highest concentration of compound in this step was 60 μM.
(§9) Treatment of Cells: the above-prepared cell culture plate was taken out of the incubator. 20 μL of compound solution from each well was added to the corresponding cell culture wells. The lowest pipetting speed was used and touching the bottom of the plate was avoided. The culture plate was gently shaked to mix the compound solution, then the plate was returned to the incubator for further culture for 72 hours.
(§10) The highest treatment concentration of the compound was 10 μM. After 72 hours of treatment, the Cell Titer-Glo (CTG) assay was performed. First, the cell culture plate was removed from the CO2 incubator and allowed to stand at room temperature for 30 minutes to ensure uniform temperature of the plate. The pre-prepared Cell Titer-Glo reagent (following the manufacturer's instructions) was taken and allowed to stand at room temperature to thaw. 60 μL of Cell Titer-Glo reagent was added to each well containing cells. The cells were incubated on a horizontal shaker in a dark place at 225 rpm for 1 hour at room temperature. Then, a Tecan Spark microplate reader was used to read the plate using chemiluminescence according to the manufacturer's instructions.

[3] = system: Ba/F3-TPM3-NTRK1-WT cells; assay: Growth inhibition of Ba/F3-TPM3-NTRK1-WT cells (Cell Titer-Glo); format: cell-based; conditions: 72 hours, CTG; read-out: inhibitory activity IC50 Ba/F3-TPM3-NTRK1-WT
Description: as §7, §8, §9, §10

Chain of TRKA^F589L kinase (P04629 33-796 F589L): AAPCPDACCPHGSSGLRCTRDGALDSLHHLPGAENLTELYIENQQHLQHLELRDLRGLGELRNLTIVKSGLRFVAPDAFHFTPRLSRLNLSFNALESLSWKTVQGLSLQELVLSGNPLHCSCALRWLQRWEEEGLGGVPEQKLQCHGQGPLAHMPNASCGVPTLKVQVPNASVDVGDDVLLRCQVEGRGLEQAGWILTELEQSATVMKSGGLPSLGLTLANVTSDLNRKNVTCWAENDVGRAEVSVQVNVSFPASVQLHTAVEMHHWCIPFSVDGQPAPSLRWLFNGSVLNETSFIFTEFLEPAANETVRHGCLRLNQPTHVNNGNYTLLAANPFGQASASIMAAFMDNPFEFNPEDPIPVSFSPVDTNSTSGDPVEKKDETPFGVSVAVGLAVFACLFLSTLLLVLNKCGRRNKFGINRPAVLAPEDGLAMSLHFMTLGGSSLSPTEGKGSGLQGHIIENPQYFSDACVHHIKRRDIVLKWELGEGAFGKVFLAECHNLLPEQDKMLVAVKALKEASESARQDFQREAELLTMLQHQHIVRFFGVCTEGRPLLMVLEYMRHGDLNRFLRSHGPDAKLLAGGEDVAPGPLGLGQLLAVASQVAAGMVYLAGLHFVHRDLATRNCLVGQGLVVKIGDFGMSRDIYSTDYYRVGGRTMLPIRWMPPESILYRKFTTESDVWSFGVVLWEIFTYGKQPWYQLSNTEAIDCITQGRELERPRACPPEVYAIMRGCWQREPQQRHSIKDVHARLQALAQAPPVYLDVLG
Chain of TRKA^WT kinase (P04629 33-796): as the sequence (P04629 33-796 F589L) above, with L557F counted along it

Structure (SMILES)	pIC50 (TRKA^WT kinase)	pIC50 (TRKA^F589L kinase)	pIC50 [1]	pIC50 [2]	pIC50 [3]
C[C@H]1Nc2ccc3ncc(n3n2)-c2cc(ccn2)COc2ccc(F)cc21 [Example I-14, (R)-(E)-5^4-fluoro-6-methyl-4-oxa-7-aza-1(3,6)-imidazo[1,2-b]pyridazina-2(2,4)-pyridina-5(1,2)-benzenacycloheptaphane]	> 8.52	> 8.30	> 7.00	–	–
C[C@H]1Nc2ccc3ncc(n3n2)-c2cc(ccn2)COc2c(F)cc(F)cc21 [Example I-16, (R)-(E)-5^4,5^6-difluoro-6-methyl-4-oxa-7-aza-1(3,6)-imidazo[1,2-b]pyridazine-2(2,4)-pyridina-5(1,2)-benzenacycloheptaphane]	> 8.52	> 8.30	> 7.00	–	–
C[C@H]1Nc2ccc3ncc(n3n2)-c2cc(ccn2)COc2ccccc21 [Example I-18, (R)-(E)-6-methyl-4-oxa-7-aza-1(3,6)-imidazo[1,2-b]pyridazine-2(2,4)-pyridina-5(1,2)-benzenacycloheptaphane]	> 8.52	> 8.30	> 7.00	–	–
C[C@H]1Nc2ccc3ncc(n3n2)-c2cc(ccn2)COc2ncccc21 [Example I-20, (R)-(E)-6-methyl-4-oxa-7-aza-1(3,6)-imidazo[1,2-b]pyridazina-2(2,4), 5(2,3)-dipyridinacycloheptaphane]	> 8.52	> 8.30	> 7.00	–	–
C[C@H]1Nc2ccc3ncc(n3n2)-c2cncc(c2)COc2ccc(F)cc21 [Example I-22, (R)-(E)-5^4-fluoro-6-methyl-4-oxa-7-aza-1(3,6)-imidazo[1,2-b]pyridazina-2(3,5)-pyridina-5(1,2)-benzenacycloheptaphane]	> 8.52	> 8.30	> 7.00	–	–
C[C@H]1Nc2ccc3ncc(n3n2)-c2cc(ccn2)OCc2ncc(F)cc21 [Example I-24, (R)-(E)-5^5-fluoro-6-methyl-3-oxa-7-aza-1(3,6)-imidazo[1,2-b]pyridazina-2(2,4), 5(2,3)-dipyridinacycloheptaphane]	> 8.52	> 8.30	> 7.00	–	–
Fc1ccc2c(c1)[C@H]1C[C@H](F)CN1c1ccc3ncc(n3n1)-c1nccc(n1)CO2 [Example I-62, (14bR,16S,E)-13,16-difluoro-14b,15,16,17-tetrahydro-9H-4,8-(azeno)-1,19-ethenobenzo[b]imidazo[1,5-h]pyrrolo[2,1-d][1]oxa[5,7,8,11]tetraazacyclopentadecine]	–	–	7.87	9.15	9.68
Fc1cnc2c(c1)[C@H]1C[C@H](F)CN1c1ccc3ncc(n3n1)-c1nccc(n1)CO2 [Example I-64, (14bR,16S,E)-13,16-difluoro-14b,15,16,17-tetrahydro-9H-4,8-(azeno)-1,19-ethenoimidazo[1,5-h]pyrido[2,3-b]pyrrolo[2,1-d][1]oxa[5,7,8,11]tetraazacyclopentadecine]	–	–	8.07	9.05	9.52
Fc1ccc2c(c1)[C@H]1C[C@H](F)CN1c1ccc3ncc(n3n1)-c1cc(cnn1)CO2 [Example I-66, (14bR,16S,E)-13,16-difluoro-14b,15,16,17-tetrahydro-9H-1,19-etheno-4,8-(metheno)benzo[n]imidazo[5,1-h]pyrrolo[1,2-l][1]oxa[5,6,9,10,12]pentaazacyclopentadecine]	–	–	8.89	9.40	10.30
Fc1cnc2c(c1)[C@H]1C[C@H](F)CN1c1ccc3ncc(n3n1)-c1cc(cnn1)CO2 [Example I-68, (14bR,16S,E)-13,16-difluoro-14b,15,16,17-tetrahydro-9H-1,19-etheno-4,8-(metheno)imidazo[5,1-h]pyrido[3,2-n]pyrrolo[1,2-l][1]oxa[5,6,9,10,12]pentaazacyclopentadecine]	–	–	8.55	8.80	10.22
Fc1ccc2c(c1)[C@H]1C[C@H](F)CN1c1ccc3ncc(n3n1)-c1cc(ncn1)CCO2 [Example I-70, (3^2R,3^4S,E)-3^4,4^5-difluoro-5-oxa-2(3,6)-imidazo[1,2-b]pyridazina-1(4,6)-pyrimidina-3(1,2)-pyrrolidina-4(1,2)-benzenacycloheptaphane]	–	–	8.34	8.96	9.92
Fc1cnc2c(c1)[C@H]1C[C@H](F)CN1c1ccc3ncc(n3n1)-c1cc(ncn1)CCO2 [Example I-72, (3^2R,3^4S,E)-3^4,4^5-difluoro-5-oxa-2(3,6)-imidazo[1,2-b]pyridazina-1(4,6)-pyrimidina-4(3,2)-pyridina-3(1,2)-pyrrolidinacycloheptaphane]	–	–	8.13	8.82	10.15
Fc1ccc2c(c1)[C@H]1C[C@H](F)CN1c1ccc3ncc(n3n1)-c1nccc(n1)CCO2 [Example I-86, (3^2R,3^4S,E)-3^4,4^5-difluoro-5-oxa-2(3,6)-imidazo[1,2-b]pyridazina-1(2,4)-pyrimidina-3(1,2)-pyrrolidina-4(1,2)-benzenacycloheptaphane]	–	–	7.86	8.64	9.60
Fc1ccc2c(c1)[C@H]1C[C@H](F)CN1c1ccc3ncc(n3n1)-c1cc(cnn1)CCO2 [Example I-92, (3^2R,3^4S,E)-3^4,4^5-difluoro-5-oxa-2(3,6)-imidazo[1,2-b]pyridazina-1(3,5)-pyridazina-3(1,2)-pyrrolidina-4(1,2)-benzenacycloheptaphane]	–	–	8.37	9.22	9.74
Fc1cnc2c(c1)[C@H]1C[C@H](F)CN1c1ccc3ncc(n3n1)-c1cc(cnn1)CCO2 [Example I-94, (3^2R,3^4S,E)-3^4,4^5-difluoro-5-oxa-2(3,6)-imidazo[1,2-b]pyridazina-1(3,5)-pyridazina-4(3,2)-pyridina-3(1,2)-pyrrolidinacycloheptaphane]	–	–	8.60	9.00	10.05
C[C@H]1Cc2ccnc(n2)-c2cnc3ccc(nn23)N2C[C@@H](F)C[C@@H]2c2cc(F)cnc2O1 [Example I-96, (3^2R,3^4S,6S,E)-3^4,4^5-difluoro-6-methyl-5-oxa-2(3,6)-imidazo[1,2-b]pyridazina-1(2,4)-pyrimidina-4(3,2)-pyridina-3(1,2)-pyrrolidinacycloheptaphane]	–	–	8.43	8.85	9.96
C[C@@H]1CCc2ncc(F)cc2[C@H]2CCCN2c2ccn3ncc(c3n2)C(=O)N1 [LOXO-195, reference compound]	–	–	6.77	8.00	8.51
